Source: patent US9102752B2, “Peptide vaccine for prevention and immunotherapy of dementia of the Alzheimer's type” (United Biomedical, Inc., priority 2013, dated 2015)

Tests used:
[1] = system: anti-Aβ antibodies in sera from vaccinated baboons; assay: Epitope mapping, 10-mer peptide-based ELISA with sera from vaccinated baboons; conditions: peptide as plate coating
Description: Fine specificity analyses of anti-Aβ antibodies in immunized hosts or vaccines were determined by epitope mapping.
These nested peptides were used individually to coat microtiter wells as solid-phase immunoadsorbents for ELISA tests. The positive control ELISA plate was coated with Aβ1-28. They were tested for antibody binding with the sera from the four immunized baboons, from weeks 0, 10, 84 and 111. Baboon sera were serially diluted and assayed on plates coated with a 10-mer peptide at 5 ug/mL.

[2] = system: anti-Aβ antibodies in macaque antisera; assay: Specificity analysis (10-mer peptide ELISA) of antisera from Cynomolgus macaques; assay type: binding
[3] = system: anti-Aβ antibodies in sera of vaccinated patients; assay: Epitope mapping, competitive binding inhibition EIA with patient sera (10-mer peptides, IC50); parameters: species or system human; Epitope mapping, fine specificity analysis, serum of subject P210: unit not given here; conditions: for Epitope mapping, fine specificity analysis, serum of subject P101: serum 16 wpi of vaccinated patient P101; for Epitope mapping, fine specificity analysis, serum of subject P102: serum 16 wpi of vaccinated patient P102; for Epitope mapping, fine specificity analysis, serum of subject P103: serum 16 wpi of vaccinated patient P103; for Epitope mapping, fine specificity analysis, serum of subject P104: serum 16 wpi of vaccinated patient P104; for Epitope mapping, fine specificity analysis, serum of subject P105: serum 16 wpi of vaccinated patient P105; for Epitope mapping, fine specificity analysis, serum of subject P106: serum 16 wpi of vaccinated patient P106; for Epitope mapping, fine specificity analysis, serum of subject P107: serum 16 wpi of vaccinated patient P107; for Epitope mapping, fine specificity analysis, serum of subject P108: serum 16 wpi of vaccinated patient P108; for Epitope mapping, fine specificity analysis, serum of subject P109: serum 16 wpi of vaccinated patient P109; for Epitope mapping, fine specificity analysis, serum of subject P201: serum 16 wpi of vaccinated patient P201; for Epitope mapping, fine specificity analysis, serum of subject P202: serum 16 wpi of vaccinated patient P202; for Epitope mapping, fine specificity analysis, serum of subject P203: serum 16 wpi of vaccinated patient P203; for Epitope mapping, fine specificity analysis, serum of subject P204: serum 16 wpi of vaccinated patient P204; for Epitope mapping, fine specificity analysis, serum of subject P205: serum 16 wpi of vaccinated patient P205; for Epitope mapping, fine specificity analysis, serum of subject P206: serum 16 wpi of vaccinated patient P206; for Epitope mapping, fine specificity analysis, serum of subject P207: serum 16 wpi of vaccinated patient P207; for Epitope mapping, fine specificity analysis, serum of subject P208: serum 16 wpi of vaccinated patient P208; for Epitope mapping, fine specificity analysis, serum of subject P209: serum 16 wpi of vaccinated patient P209; for Epitope mapping, fine specificity analysis, serum of subject P210: serum 16 wpi of vaccinated patient P210
[4] = antisera of macaques given UBI AD Vaccine 150 μg/dose, 9 WPI
[5] = antisera of macaques given UBI AD Vaccine 150 μg/dose, 15 WPI
[6] = antisera of macaques given UBI AD Vaccine 750 μg/dose, 9 WPI
[7] = antisera of macaques given UBI AD Vaccine 750 μg/dose, 15 WPI

Substance	ELISA Titer titers (Log10) ([1]; 0 weeks post immunization)	ELISA Titer titers (Log10) ([1]; 10 weeks post immunization)	ELISA Titer titers (Log10) ([1]; 84 weeks post immunization)	ELISA Titer titers (Log10) ([1]; 111 weeks post immunization)	Reactivity of antisera with peptide (specificity analysis ELISA) [2, 4]	Reactivity of antisera with peptide (specificity analysis ELISA) [2, 5]	Reactivity of antisera with peptide (specificity analysis ELISA) [2, 6]	Reactivity of antisera with peptide (specificity analysis ELISA) [2, 7]	Epitope mapping, fine specificity analysis, serum of subject P101 [3]	Epitope mapping, fine specificity analysis, serum of subject P102 [3]	Epitope mapping, fine specificity analysis, serum of subject P103 [3]	Epitope mapping, fine specificity analysis, serum of subject P104 [3]	Epitope mapping, fine specificity analysis, serum of subject P105 [3]	Epitope mapping, fine specificity analysis, serum of subject P106 [3]	Epitope mapping, fine specificity analysis, serum of subject P107 [3]	Epitope mapping, fine specificity analysis, serum of subject P108 [3]	Epitope mapping, fine specificity analysis, serum of subject P109 [3]	Epitope mapping, fine specificity analysis, serum of subject P201 [3]	Epitope mapping, fine specificity analysis, serum of subject P202 [3]	Epitope mapping, fine specificity analysis, serum of subject P203 [3]	further results
19 (FRHDSGYEVH) [Peptide 19]	0.20 Log10	0.40 Log10	0.22 Log10	0.30 Log10	–	–	–	–	–	–	–	–	–	–	–	–	–	–	–	–	–
20 (RHDSGYEVHH) [Peptide 20]	0.23 Log10	0.34 Log10	0.27 Log10	0.41 Log10	–	–	–	–	–	–	–	–	–	–	–	–	–	–	–	–	–
21 (HDSGYEVHHQ) [Peptide 21]	0.21 Log10	0.40 Log10	0.18 Log10	1.14 Log10	–	–	–	–	–	–	–	–	–	–	–	–	–	–	–	–	–
22 (DSGYEVHHQK) [Peptide 22]	0.32 Log10	0.78 Log10	0.64 Log10	0.76 Log10	–	–	–	–	–	–	–	–	–	–	–	–	–	–	–	–	–
23 (SGYEVHHQKL) [Peptide 23]	0.13 Log10	0.49 Log10	0.51 Log10	0.78 Log10	–	–	–	–	–	–	–	–	–	–	–	–	–	–	–	–	–
24 (GYEVHHQKLV) [Peptide 24]	0.13 Log10	0.27 Log10	0.19 Log10	0.12 Log10	–	–	–	–	–	–	–	–	–	–	–	–	–	–	–	–	–
25 (YEVHHQKLVF) [Peptide 25]	0.16 Log10	0.43 Log10	0.15 Log10	0.22 Log10	–	–	–	–	–	–	–	–	–	–	–	–	–	–	–	–	–
25 (YEVHHQKLVF; PEPTIDE (1)..(10) Abeta 10-19 or APP 770(Y681-F690); listed as Homo sapiens) [compound 25]	–	–	–	–	0.092	0.069	0.069	0.058	0	0	0	0	0	0	0	0	0	0	0	0	Epitope mapping, fine specificity analysis, serum of subject P204 [3]: 0; Epitope mapping, fine specificity analysis, serum of subject P205 [3]: 0; Epitope mapping, fine specificity analysis, serum of subject P206 [3]: 0; Epitope mapping, fine specificity analysis, serum of subject P207 [3]: 10; Epitope mapping, fine specificity analysis, serum of subject P208 [3]: 0; Epitope mapping, fine specificity analysis, serum of subject P209 [3]: 0; Epitope mapping, fine specificity analysis, serum of subject P210 [3]: 0
28 (HHQKLVFFAE; PEPTIDE (1)..(10) Abeta 13-22 or APP 770(H684-E693); listed as Homo sapiens) [compound 28]	–	–	–	–	0.044	0.052	0.046	0.032	0	0	0	0	0	0	0	0	0	0	0	0	Epitope mapping, fine specificity analysis, serum of subject P204 [3]: 0; Epitope mapping, fine specificity analysis, serum of subject P205 [3]: 0; Epitope mapping, fine specificity analysis, serum of subject P206 [3]: 0; Epitope mapping, fine specificity analysis, serum of subject P207 [3]: 0; Epitope mapping, fine specificity analysis, serum of subject P208 [3]: 0; Epitope mapping, fine specificity analysis, serum of subject P209 [3]: 0; Epitope mapping, fine specificity analysis, serum of subject P210 [3]: 0
29 (HQKLVFFAED; PEPTIDE (1)..(10) Abeta 14-23 or APP 770(H685-D694); listed as Homo sapiens) [compound 29]	–	–	–	–	0.050	0.058	0.047	0.050	0	0	0	0	0	0	0	0	0	0	0	0	Epitope mapping, fine specificity analysis, serum of subject P204 [3]: 0; Epitope mapping, fine specificity analysis, serum of subject P205 [3]: 0; Epitope mapping, fine specificity analysis, serum of subject P206 [3]: 0; Epitope mapping, fine specificity analysis, serum of subject P207 [3]: 0; Epitope mapping, fine specificity analysis, serum of subject P208 [3]: 0; Epitope mapping, fine specificity analysis, serum of subject P209 [3]: 0; Epitope mapping, fine specificity analysis, serum of subject P210 [3]: 0
30 (QKLVFFAEDV; PEPTIDE (1)..(10) Abeta 15-24 or APP 770(Q686-V695); listed as Homo sapiens) [compound 30]	–	–	–	–	0.043	0.055	0.062	0.059	0	0	0	0	0	0	0	0	0	0	0	0	Epitope mapping, fine specificity analysis, serum of subject P204 [3]: 0; Epitope mapping, fine specificity analysis, serum of subject P205 [3]: 0; Epitope mapping, fine specificity analysis, serum of subject P206 [3]: 0; Epitope mapping, fine specificity analysis, serum of subject P207 [3]: 0; Epitope mapping, fine specificity analysis, serum of subject P208 [3]: 0; Epitope mapping, fine specificity analysis, serum of subject P209 [3]: 0; Epitope mapping, fine specificity analysis, serum of subject P210 [3]: 0
